Measurements reported in ChEMBL document CHEMBL4354856, “Discovery of 4,6-O-Thenylidene-β-d-glucopyranoside-(2″-acetamido, 3″-acetyl-di-S-5-fluorobenzothizole/5-fluorobenzoxazole)-4'-demethylepipodophyllotoxin as Potential Less Toxic Antitumor Candidate Drugs by Reducing DNA Damage and Less Inhibition of PI3K” (J Med Chem, 2020).
pIC50: −log10 of the molar value. Activity calls are given as the source filed them. The rule behind the calls is not given here.

Columns and labels:
HepG2 [1] = assay: Anticancer activity against human HepG2 cells assessed as inhibition of cell proliferation measured after 48 hrs by MTT assay; type: functional, cell-based; conditions: HepG2, 48 h
[2] = Cytotoxicity against human H8 cells assessed as inhibition of cell proliferation measured after 48 hrs by MTT assay; type: cell-based
HeLa = assay: Anticancer activity against human HeLa cells assessed as inhibition of cell proliferation measured after 48 hrs by MTT assay; type: functional, cell-based
HMEC [3] = assay: Cytotoxicity against human HMEC cells assessed as inhibition of cell proliferation measured after 48 hrs by MTT assay; type: cell-based
L02 [4] = assay: Cytotoxicity against human HL7702 cells assessed as inhibition of cell proliferation measured after 48 hrs by MTT assay; type: cell-based; conditions: L02, 48 h
A549 = assay: Anticancer activity against human A549 cells assessed as inhibition of cell proliferation measured after 48 hrs by MTT assay; type: functional, cell-based; conditions: A549, 48 h
MCF7 = assay: Anticancer activity against human MCF7 cells assessed as inhibition of cell proliferation measured after 48 hrs by MTT assay; type: functional, cell-based; conditions: MCF7, 48 h
MRC5 [5] = assay: Cytotoxicity against human MRC5 cells assessed as inhibition of cell proliferation measured after 48 hrs by MTT assay; type: cell-based; conditions: MRC5, 48 h
HepG2 [6] = assay: Antitumor activity against human HepG2 xenografted in BALB/c nude mouse assessed as tumor volume at 30 mg/kg, ip administered for 20 days and measured after 20 days by electronic caliper method (reference value: 960.20 +/- 32.10 mm3); type: functional
HepG2 [7] = assay: Antitumor activity against human HepG2 xenografted in ip dosed BALB/c nude mouse administered for 20 days and measured after 20 days by electronic caliper method; type: functional; conditions: 480 h
HepG2 [8] = assay: Antitumor activity against human HepG2 xenografted in BALB/c nude mouse assessed as tumor growth inhibition at 30 mg/kg, ip administered for 20 days and measured after 20 days by electronic caliper method relative to control; type: functional; conditions: 480 h, read-out: TGI
MRC5 [9] = assay: Cytotoxicity against human MRC5 cells assessed as inhibition of cell proliferation measured after 48 hrs by MTT assay relative to teniposide; type: cell-based; conditions: mrc5, 48 h
[10] = Acute toxicity in ip dosed C57BL6 mouse assessed as mouse survival administered as single dose for 3 days and monitored for 20 days by Bliss method; type: organism-based; conditions: in vivo
HepG2 [11] = assay: Cell cycle arrest in human HepG2 cells assessed as accumulation at G2/M phase at 15 uM after 36 hrs by propidium staining based flow cytometry analysis relative to control; type: functional
[12] = target: DNA topoisomerase 2-alpha (Homo sapiens) (UniProt P11388); assay: Inhibition of human topoisomerase-2alpha mediated decatenation at 50 uM using kinetoplast DNA as substrate after 30 mins in presence of ATP by ethidium bromide staining-based UV imaging analysis relative to control
DNA topoisomerase 2-alpha (Homo sapiens), sequence (P11388 whole entry): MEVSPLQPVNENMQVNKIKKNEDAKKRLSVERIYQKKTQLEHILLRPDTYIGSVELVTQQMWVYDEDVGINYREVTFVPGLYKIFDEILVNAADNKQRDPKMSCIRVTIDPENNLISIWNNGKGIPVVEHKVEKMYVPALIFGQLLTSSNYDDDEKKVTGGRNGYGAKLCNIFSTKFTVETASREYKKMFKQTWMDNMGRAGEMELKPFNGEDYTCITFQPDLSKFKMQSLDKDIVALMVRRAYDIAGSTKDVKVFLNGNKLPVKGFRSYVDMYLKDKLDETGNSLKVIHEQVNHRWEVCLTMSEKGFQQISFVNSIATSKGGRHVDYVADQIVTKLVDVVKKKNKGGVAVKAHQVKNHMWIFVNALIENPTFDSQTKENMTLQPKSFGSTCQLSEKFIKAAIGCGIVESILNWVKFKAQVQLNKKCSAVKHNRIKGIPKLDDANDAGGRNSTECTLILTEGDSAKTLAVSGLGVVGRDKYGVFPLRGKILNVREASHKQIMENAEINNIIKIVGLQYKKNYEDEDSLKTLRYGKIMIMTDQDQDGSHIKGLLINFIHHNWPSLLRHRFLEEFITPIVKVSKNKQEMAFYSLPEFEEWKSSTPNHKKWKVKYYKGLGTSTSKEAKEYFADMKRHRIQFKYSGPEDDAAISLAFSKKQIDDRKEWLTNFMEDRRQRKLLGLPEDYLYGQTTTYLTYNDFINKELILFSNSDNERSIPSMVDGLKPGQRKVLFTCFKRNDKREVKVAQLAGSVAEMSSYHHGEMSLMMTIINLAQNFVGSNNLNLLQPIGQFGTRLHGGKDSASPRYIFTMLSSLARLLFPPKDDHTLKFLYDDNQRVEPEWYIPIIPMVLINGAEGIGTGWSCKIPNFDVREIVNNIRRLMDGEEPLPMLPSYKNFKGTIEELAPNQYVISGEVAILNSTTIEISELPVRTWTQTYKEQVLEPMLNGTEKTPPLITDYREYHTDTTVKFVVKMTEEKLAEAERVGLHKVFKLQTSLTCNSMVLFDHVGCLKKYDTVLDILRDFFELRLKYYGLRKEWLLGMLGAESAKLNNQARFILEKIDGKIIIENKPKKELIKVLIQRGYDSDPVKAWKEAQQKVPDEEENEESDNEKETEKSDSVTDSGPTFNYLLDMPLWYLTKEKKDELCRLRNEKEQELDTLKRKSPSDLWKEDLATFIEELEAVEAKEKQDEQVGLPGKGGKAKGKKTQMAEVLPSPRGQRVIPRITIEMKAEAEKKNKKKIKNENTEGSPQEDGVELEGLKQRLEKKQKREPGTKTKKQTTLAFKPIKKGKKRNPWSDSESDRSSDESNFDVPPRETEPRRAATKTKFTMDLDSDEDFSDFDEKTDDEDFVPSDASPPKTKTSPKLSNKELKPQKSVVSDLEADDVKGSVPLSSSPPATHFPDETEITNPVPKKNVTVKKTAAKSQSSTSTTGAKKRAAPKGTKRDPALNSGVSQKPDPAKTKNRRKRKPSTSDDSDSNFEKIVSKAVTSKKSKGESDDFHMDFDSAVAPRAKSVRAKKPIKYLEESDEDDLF

L02 [13] = assay: Cell cycle arrest in human HL7702 cells assessed as accumulation at G2/M phase at 5 uM after 30 hrs by propidium staining based flow cytometry analysis relative to control; conditions: l02, 30 h
L02 [14] = assay: Induction of DNA damage in human HL7702 cells assessed as effect on gamma-H2AX phosphorylation at 20 uM after 24 hrs by Alexa Fluor 488 staining based fluorescence assay; type: cell-based; conditions: l02, 24 h
HMEC [15] = assay: Cytotoxicity against human HMEC cells assessed as inhibition of cell proliferation measured after 48 hrs by MTT assay relative to teniposide; type: cell-based
L02 [16] = assay: Genotoxicity in human HL7702 cells assessed as induction of DNA damage by measuring tail DNA at 50 uM after 24 hrs by alkaline comet assay (reference value: 3 +/- 1.1 %); type: toxicity, cell-based; conditions: l02, 24 h
HepG2 [17] = assay: Induction of DNA damage in human HepG2 cells assessed as increase in H2AX phosphorylation at 20 uM after 24 hrs by Alexa Fluor 488 staining based fluorescence assay; type: functional, cell-based
L02 [18] = assay: Induction of apoptosis in human HL7702 cells assessed as increase in BAX level at 25 uM after 30 hrs by Western blot analysis; type: cell-based; conditions: l02, 30 h
DNA topoisomerase II [19] = target: T1, DNA topoisomerase II (Homo sapiens, UniProt P11388+Q02880); assay: Poison activity at topoisomerase-2 in human HL7702 cell lysate assessed as reduction in topoisomerase-2 band depletion at 50 uM after 3 hrs by Western blot analysis; type: ADME, subcellular
[20] = Therapeutic index, ratio of LD50 for acute toxicity in ip dosed C57BL6 mouse assessed as mouse survival administered as single dose for 3 days and monitored for 20 days by Bliss method to ED50 for antitumor activity against human HepG2 xenografted in ip dosed BALB/c nude mouse administered for 20 days and measured after 20 days by electronic caliper method; type: organism-based; conditions: in vivo, read-out: TI
[21] = target: DNA topoisomerase 2-alpha (Homo sapiens) (UniProt P11388); assay: Inhibition of human topoisomerase-2alpha mediated decatenation at 25 uM using kinetoplast DNA as substrate after 30 mins in presence of ATP by ethidium bromide staining-based UV imaging analysis
[22] = Acute toxicity in C57BL6 mouse assessed as effect on body weight at 100 mg/kg, ip administered for 20 days; type: organism-based; conditions: in vivo, 480 h
HepG2 [23] = assay: Cell cycle arrest in human HepG2 cells assessed as accumulation at G2/M phase at 5 uM after 24 hrs by propidium staining based flow cytometry analysis; type: functional
Homo sapiens = species: Homo sapiens; assay: Induction of PI3K/AKT phosphorylation in human HL7702 cells at 25 uM after 30 hrs by Western blot analysis; type: cell-based
L02 [24] = assay: Cytotoxicity against human HL7702 cells assessed as inhibition of cell proliferation measured after 48 hrs by MTT assay relative to teniposide; type: cell-based; conditions: l02, 48 h
L02 [25] = assay: Induction of apoptosis in human HL7702 cells assessed as apoptotic cells at 50 uM measured after 42 hrs by Annexin-V/propidium iodide staining based flow cytometry analysis relative to control; type: cell-based; conditions: l02, 42 h
L02 [26] = assay: Genotoxicity in human HL7702 cells assessed as induction of DNA damage at 50 uM after 24 hrs in combination of teniposide by alkaline comet assay; type: toxicity, cell-based; conditions: l02, 24 h
HepG2 [27] = assay: Induction of apoptosis in human HepG2 cells assessed as apoptotic cells at 10 uM measured after 42 hrs by Annexin-V/propidium iodide staining based flow cytometry analysis relative to control; type: functional
DNA topoisomerase II [28] = target: T1, DNA topoisomerase II; assay: Poison activity at topoisomerase-2 in human HepG2 cell lysate assessed as topoisomerase-2 band depletion after 3 hrs by Western blot analysis; type: subcellular
HepG2 [29] = assay: Induction of apoptosis in human HepG2 cells assessed as apoptotic cells at 5 to 15 uM measured after 36 hrs by Annexin-V/propidium iodide staining based flow cytometry analysis relative to control; type: functional
[30] = target: DNA topoisomerase 2-alpha (Homo sapiens) (UniProt P11388); assay: Inhibition of human topoisomerase-2alpha mediated decatenation using kinetoplast DNA as substrate after 30 mins in presence of ATP by ethidium bromide staining-based UV imaging analysis
L02 [31] = assay: Induction of apoptosis in human HL7702 cells assessed as increase in PARP cleavage at 25 uM after 30 hrs by Western blot analysis; type: cell-based; conditions: l02, 30 h

## COc1cc([C@@H]2c3cc4c(cc3[C@@H](O[C@@H]3O[C@@H]5CO[C@@H](c6cccs6)O[C@H]5[C@H](OC(=O)CSc5nc6cc(F)ccc6s5)[C@H]3OC(=O)CSc3nc5cc(F)ccc5s3)[C@H]3COC(=O)[C@H]23)OCO4)cc(OC)c1O
HepG2 [1]
  pIC50: 4.42
[2]
  pIC50: 4.69
HeLa
  pIC50: 3.76
HMEC [3]
  pIC50: 4.61
L02 [4]
  pIC50: 4.66
A549
  pIC50: 3.93
MCF7
  pIC50: 3.82
MRC5 [5]
  pIC50: 4.59

## COc1cc([C@@H]2c3cc4c(cc3[C@@H](O[C@@H]3O[C@@H]5CO[C@@H](c6cccs6)O[C@H]5[C@H](OC(=O)CSc5nc6cc(F)ccc6o5)[C@H]3O)[C@H]3COC(=O)[C@H]23)OCO4)cc(OC)c1O
HepG2 [1]
  pIC50: 5.68
[2]
  pIC50: 4.80
HeLa
  pIC50: 5.70
HMEC [3]
  pIC50: 4.85
L02 [4]
  pIC50: 4.79
A549
  pIC50: 5.32
MCF7
  pIC50: 5.34
MRC5 [5]
  pIC50: 4.83

## COc1cc([C@@H]2c3cc4c(cc3[C@@H](O[C@@H]3O[C@@H]5CO[C@@H](c6cccs6)O[C@H]5[C@H](O)[C@H]3NC(=O)CSc3nc5cc(F)ccc5s3)[C@H]3COC(=O)[C@H]23)OCO4)cc(OC)c1O
HepG2 [1]
  pIC50: 3.92
[2]
  pIC50: 3.85
HeLa
  pIC50: 3.87
HMEC [3]
  pIC50: 3.80
L02 [4]
  pIC50: 3.81
A549
  pIC50: 3.91
MCF7
  pIC50: 3.85
MRC5 [5]
  pIC50: 3.91

## COc1cc([C@@H]2c3cc4c(cc3[C@@H](O[C@@H]3O[C@@H]5CO[C@@H](c6cccs6)O[C@H]5[C@H](OC(=O)CSc5nc6cc(F)ccc6o5)[C@H]3NC(=O)CSc3nc5cc(F)ccc5o3)[C@H]3COC(=O)[C@H]23)OCO4)cc(OC)c1O
HepG2 [6]
  Activity: 163.25 mm3
HepG2 [7]
  ED50: 34.7 mg/kg
HepG2 [8]
  inhibition in vivo at 30 mg/kg: 62%
MRC5 [9]
  fold change (FC): 10
[10]
  LD50 at 480 h: 168 mg/kg
HepG2 [1]
  pIC50: 4.95
HepG2 [11]
  Activity: 76%
[12]
  inhibition: 100%
[2]
  pIC50: 3.91
L02 [13]
  Activity: 40%
L02 [14]
  Activity: Toxic
HMEC [15]
  fold change (FC): 10
L02 [16]
  Activity: 8.4%
HepG2 [17]
  Activity: Active
HeLa
  pIC50: 3.81
HMEC [3]
  pIC50: 3.90
L02 [18]
  Activity: Non-Toxic
DNA topoisomerase II [19]
  Activity: Not Active
[20]
  selectivity ratio at 20 days: 4.82
[21]
  inhibition: Active
[22]
  Activity: Non-Toxic
L02 [4]
  pIC50: 3.91
HepG2 [23]
  Activity: inactive
A549
  pIC50: 4.83
MCF7
  pIC50: 4.91
Homo sapiens
  Activity: Active
L02 [24]
  fold change (FC): 10
L02 [25]
  Activity: 30%
L02 [26]
  Activity: Toxic
HepG2 [27]
  Activity: 55%
DNA topoisomerase II [28]
  IC50: 124.2 µM
HepG2 [29]
  Activity: 30 - 55%
[30]
  inhibition: Dose-dependent effect
MRC5 [5]
  pIC50: 3.91
L02 [31]
  Activity: Non-Toxic

## COc1cc([C@@H]2c3cc4c(cc3[C@@H](O[C@@H]3O[C@@H]5CO[C@@H](c6cccs6)O[C@H]5[C@H](OC(=O)CSc5nc6cc(F)ccc6o5)[C@H]3OC(=O)CSc3nc5cc(F)ccc5o3)[C@H]3COC(=O)[C@H]23)OCO4)cc(OC)c1O
HepG2 [1]
  pIC50: 4.81
[2]
  pIC50: 4.69
HeLa
  pIC50: 4.30
HMEC [3]
  pIC50: 4.63
L02 [4]
  pIC50: 4.69
A549
  pIC50: 4.94
MCF7
  pIC50: 4.52
MRC5 [5]
  pIC50: 4.60

## COc1cc([C@@H]2c3cc4c(cc3[C@@H](O[C@@H]3O[C@@H]5CO[C@@H](c6cccs6)O[C@H]5[C@H](OC(=O)CSc5nc6cc(F)ccc6s5)[C@H]3O)[C@H]3COC(=O)[C@H]23)OCO4)cc(OC)c1O
HepG2 [1]
  pIC50: 5.57
[2]
  pIC50: 4.76
HeLa
  pIC50: 5.60
HMEC [3]
  pIC50: 4.84
L02 [4]
  pIC50: 4.79
A549
  pIC50: 5.46
MCF7
  pIC50: 5.25
MRC5 [5]
  pIC50: 4.84

## COc1cc([C@@H]2c3cc4c(cc3[C@@H](O[C@@H]3O[C@@H]5CO[C@@H](c6cccs6)O[C@H]5[C@H](O)[C@H]3NC(=O)CSc3nc5cc(F)ccc5o3)[C@H]3COC(=O)[C@H]23)OCO4)cc(OC)c1O
HepG2 [1]
  pIC50: 3.92
[2]
  pIC50: 3.83
HeLa
  pIC50: 3.80
HMEC [3]
  pIC50: 3.81
L02 [4]
  pIC50: 3.84
A549
  pIC50: 3.91
MCF7
  pIC50: 3.80
MRC5 [5]
  pIC50: 3.88

## COc1cc([C@@H]2c3cc4c(cc3[C@@H](O[C@@H]3O[C@@H]5CO[C@@H](c6cccs6)O[C@H]5[C@H](O)[C@H]3OC(=O)CSc3nc5cc(F)ccc5s3)[C@H]3COC(=O)[C@H]23)OCO4)cc(OC)c1O
HepG2 [1]
  pIC50: 5.70
[2]
  pIC50: 4.65
HeLa
  pIC50: 5.82
HMEC [3]
  pIC50: 4.87
L02 [4]
  pIC50: 4.73
A549
  pIC50: 5.96
MCF7
  pIC50: 5.41
MRC5 [5]
  pIC50: 4.91

## COc1cc([C@@H]2c3cc4c(cc3[C@@H](O[C@@H]3O[C@@H]5CO[C@@H](c6cccs6)O[C@H]5[C@H](O)[C@H]3OC(=O)CSc3nc5cc(F)ccc5o3)[C@H]3COC(=O)[C@H]23)OCO4)cc(OC)c1O
HepG2 [1]
  pIC50: 5.77
[2]
  pIC50: 4.67
HeLa
  pIC50: 6.00
HMEC [3]
  pIC50: 4.84
L02 [4]
  pIC50: 4.76
A549
  pIC50: 5.57
MCF7
  pIC50: 5.40
MRC5 [5]
  pIC50: 4.80
